Source: the NIST ThermoML archive (doi:10.1016/j.fluid.2015.10.026)

Conditions: Liquid, Brillouin light scattering

CCOC(C)(C)C [2-ethoxy-2-methylpropane]
Conditions	speed of sound [m/s]
293.15 K, 10 kPa	1059.2
293.15 K, 1000 kPa	1060.3
293.15 K, 2500 kPa	1070.5
293.15 K, 4000 kPa	1080.8
293.15 K, 5500 kPa	1091.1
293.15 K, 7000 kPa	1101.5
293.15 K, 8500 kPa	1111.9
293.15 K, 10000 kPa	1122.4
303.15 K, 10 kPa	1013
303.15 K, 1000 kPa	1019.4
303.15 K, 2500 kPa	1030.3
303.15 K, 4000 kPa	1041.2
303.15 K, 5500 kPa	1052
303.15 K, 7000 kPa	1062.8
303.15 K, 8500 kPa	1073.5
303.15 K, 10000 kPa	1084.2
313.15 K, 10 kPa	967.71
313.15 K, 1000 kPa	978.21
313.15 K, 2500 kPa	989.92
313.15 K, 4000 kPa	1001.5
313.15 K, 5500 kPa	1012.9
313.15 K, 7000 kPa	1024.2
313.15 K, 8500 kPa	1035.3
313.15 K, 10000 kPa	1046.3
323.15 K, 20 kPa	923.32
323.15 K, 1000 kPa	936.6
323.15 K, 2500 kPa	949.23
323.15 K, 4000 kPa	961.61
323.15 K, 5500 kPa	973.77
323.15 K, 7000 kPa	985.68
323.15 K, 8500 kPa	997.36
323.15 K, 10000 kPa	1008.8
333.15 K, 40 kPa	879.69
333.15 K, 1000 kPa	894.61
333.15 K, 2500 kPa	908.27
333.15 K, 4000 kPa	921.59
333.15 K, 5500 kPa	934.59
333.15 K, 7000 kPa	947.25
333.15 K, 8500 kPa	959.59
333.15 K, 10000 kPa	971.59
343.15 K, 60 kPa	836.71
343.15 K, 1000 kPa	852.23
343.15 K, 2500 kPa	867.04
343.15 K, 4000 kPa	881.42
343.15 K, 5500 kPa	895.38
343.15 K, 7000 kPa	908.92
343.15 K, 8500 kPa	922.03
343.15 K, 10000 kPa	934.71
353.15 K, 90 kPa	794.25
353.15 K, 1000 kPa	809.46
353.15 K, 2500 kPa	825.54
353.15 K, 4000 kPa	841.11
353.15 K, 5500 kPa	856.15
353.15 K, 7000 kPa	870.68
353.15 K, 8500 kPa	884.68
353.15 K, 10000 kPa	898.16
363.15 K, 130 kPa	752.18
363.15 K, 1000 kPa	766.3
363.15 K, 2500 kPa	783.78
363.15 K, 4000 kPa	800.64
363.15 K, 5500 kPa	816.89
363.15 K, 7000 kPa	832.52
363.15 K, 8500 kPa	847.54
363.15 K, 10000 kPa	861.94
373.15 K, 180 kPa	710.37
373.15 K, 1000 kPa	722.76
373.15 K, 2500 kPa	741.75
373.15 K, 4000 kPa	760.03
373.15 K, 5500 kPa	777.6
373.15 K, 7000 kPa	794.46
373.15 K, 8500 kPa	810.61
373.15 K, 10000 kPa	826.04
383.15 K, 250 kPa	668.66
383.15 K, 1000 kPa	678.84
383.15 K, 2500 kPa	699.46
383.15 K, 4000 kPa	719.28
383.15 K, 5500 kPa	738.29
383.15 K, 7000 kPa	756.49
383.15 K, 8500 kPa	773.88
383.15 K, 10000 kPa	790.47
393.15 K, 340 kPa	626.87
393.15 K, 1000 kPa	634.52
393.15 K, 2500 kPa	656.9
393.15 K, 4000 kPa	678.37
393.15 K, 5500 kPa	698.94
393.15 K, 7000 kPa	718.61
393.15 K, 8500 kPa	737.37
393.15 K, 10000 kPa	755.23
403.15 K, 440 kPa	584.83
403.15 K, 1000 kPa	589.82
403.15 K, 2500 kPa	614.07
403.15 K, 4000 kPa	637.32
403.15 K, 5500 kPa	659.57
403.15 K, 7000 kPa	680.82
403.15 K, 8500 kPa	701.07
403.15 K, 10000 kPa	720.33
413.15 K, 570 kPa	542.3
413.15 K, 1000 kPa	544.74
413.15 K, 2500 kPa	570.98
413.15 K, 4000 kPa	596.12
413.15 K, 5500 kPa	620.17
413.15 K, 7000 kPa	643.12
413.15 K, 8500 kPa	664.98
413.15 K, 10000 kPa	685.74
423.15 K, 730 kPa	499.06
423.15 K, 2500 kPa	527.62
423.15 K, 4000 kPa	554.78
423.15 K, 5500 kPa	580.74
423.15 K, 7000 kPa	605.52
423.15 K, 8500 kPa	629.1
423.15 K, 10000 kPa	651.49
